What was measured:
[1] = humans, oral; cited from earlier work
[2] = Participants with ≥2, ≥3, ≥4, ≥5 additional reliever puffs of salbutamol/albuterol or levosalbutamol/levalbuterol; assay type: in vivo, human; details: for Number of participants with ≥2 additional reliever puffs vs baseline on 2 consecutive days / Number of participants with ≥3 additional reliever puffs vs baseline on 2 consecutive days / Number of participants with ≥4 additional reliever puffs vs baseline on 2 consecutive days / Number of participants with ≥5 additional reliever puffs vs baseline on 2 consecutive days / Participants with ≥2 additional reliever puffs vs baseline on 2 consecutive days, figure in parentheses (share) / Participants with ≥3 additional reliever puffs vs baseline on 2 consecutive days, figure in parentheses (share) / Participants with ≥4 additional reliever puffs vs baseline on 2 consecutive days, figure in parentheses (share) / Participants with ≥5 additional reliever puffs vs baseline on 2 consecutive days, figure in parentheses (share): 12-week treatment period
Procedure: An analysis was performed on the number of participants with ≥2, ≥3, ≥4, and ≥5 additional reliever puffs of salbutamol/albuterol or levosalbutamol/levalbuterol compared with baseline on 2 consecutive days during the treatment period, to assess increase in reliever medication during 12-week treatment period.

CC(C)(C=C(C#N)C(=O)N1CCC[C@@H](n2nc(-c3ccc(Oc4ccccc4)cc3F)c3c(N)ncnc32)C1)N1CCN(C2COC2)CC1 (mixture of isomers) [rilzabrutinib, (R)-2-[3-[4-amino-3-(2-fluoro-4-phenoxy-phenyl)pyrazolo[3,4-d]pyrimidin-1-yl]piperidine-1-carbonyl]-4-methyl-4-[4-(oxetan-3-yl)piperazin-1-yl]pent-2-enenitrile]
absorption [1]: rapidly absorbed
half-life [1]: 3 to 4 h
pharmacokinetic variability [1]: variable pharmacokinetics
Number of participants with ≥2 additional reliever puffs vs baseline on 2 consecutive days ([2]; 400 mg BID, N = 32): 6 participants
Number of participants with ≥3 additional reliever puffs vs baseline on 2 consecutive days ([2]; 400 mg BID, N = 32): 3 participants
Number of participants with ≥4 additional reliever puffs vs baseline on 2 consecutive days ([2]; 400 mg BID, N = 32): 2 participants
Number of participants with ≥5 additional reliever puffs vs baseline on 2 consecutive days ([2]; 400 mg BID, N = 32): 2 participants
Participants with ≥2 additional reliever puffs vs baseline on 2 consecutive days, figure in parentheses (share) ([2]; 400 mg BID, N = 32): 18.8
Participants with ≥3 additional reliever puffs vs baseline on 2 consecutive days, figure in parentheses (share) ([2]; 400 mg BID, N = 32): 9.4
Participants with ≥4 additional reliever puffs vs baseline on 2 consecutive days, figure in parentheses (share) ([2]; 400 mg BID, N = 32): 6.3
Participants with ≥5 additional reliever puffs vs baseline on 2 consecutive days, figure in parentheses (share) ([2]; 400 mg BID, N = 32): 6.3
Number of participants with ≥2 additional reliever puffs vs baseline on 2 consecutive days ([2]; 400 mg TID, N = 64): 11 participants
Number of participants with ≥3 additional reliever puffs vs baseline on 2 consecutive days ([2]; 400 mg TID, N = 64): 4 participants
Number of participants with ≥4 additional reliever puffs vs baseline on 2 consecutive days ([2]; 400 mg TID, N = 64): 3 participants
Number of participants with ≥5 additional reliever puffs vs baseline on 2 consecutive days ([2]; 400 mg TID, N = 64): 1 participants
Participants with ≥2 additional reliever puffs vs baseline on 2 consecutive days, figure in parentheses (share) ([2]; 400 mg TID, N = 64): 17.2
Participants with ≥3 additional reliever puffs vs baseline on 2 consecutive days, figure in parentheses (share) ([2]; 400 mg TID, N = 64): 6.3
Participants with ≥4 additional reliever puffs vs baseline on 2 consecutive days, figure in parentheses (share) ([2]; 400 mg TID, N = 64): 4.7
Participants with ≥5 additional reliever puffs vs baseline on 2 consecutive days, figure in parentheses (share) ([2]; 400 mg TID, N = 64): 1.6
number of participants with ≥2 to 5 additional reliever puffs compared to baseline ([2]; both cohorts, vs. placebo arms, 12-week treatment): lower in the rilzabrutinib arms compared to the placebo arms

From patent publication US20260345619A1 (Principia Biopharma Inc., priority 2023, published 2026)
